Paper PMC6315362, “Cytotoxic Potential of the Novel Horseshoe Crab Peptide Polyphemusin III” (Marine Drugs, 2018)
Values joined by “and” are separate entries in the source; they are usually repeats but may differ in a detail not shown here. Equal entries are not always repeated. Where a SMILES comes first, the peptide text is derived from it. Bridges are numbered along the chain shown (N, C = ends).

Experiments:
S. aureus 209P = experiment: Antimicrobial assay, broth microdilution MIC; format: cell-based, Staphylococcus aureus; conditions: Gram +, MH medium with NaCl, 24 h 37 °C, median of three independent triplicated experiments
Experimental: (§1) Bacterial test cultures were grown in the Mueller-Hinton (MH) medium at 37 °C to mid-log phase and then diluted with the 2 x MH medium supplemented with 1.8% NaCl. 50 µL of the bacterial suspension with a final cell concentration of 10^6 CFU/mL were added to aliquots of 50 µL of the peptide solutions and serially diluted with sterilized 0.1% bovine serum albumin in 96-well flat-bottom polystyrene microplates (Eppendorf, Hamburg, Germany). Bacterial cells were incubated for 24 h at 37 °C and 900 rpm on the plate thermoshaker (Biosan, Riga, Latvia). The minimum inhibitory concentrations (MIC) were determined as the lowest peptide concentration that prevented growth of a test microorganism observed as visible turbidity. The results were expressed as median values of three independent triplicated experiments. Assessment of antimicrobial activities of the recombinant PM III, other polyphemusins, and tachyplesins was conducted against Gram-negative (Escherichia coli ML-35p, Klebsiella pneumoniae (clinical isolate, CI 287), Pseudomonas aeruginosa PAO1) and Gram-positive (Staphylococcus aureus ATCC 29213, Staphylococcus aureus 209P, Bacillus subtilis B-886, Micrococcus luteus B-1314) bacteria.

S. aureus ATCC 29213 = experiment: Antimicrobial assay, broth microdilution MIC; format: cell-based, Staphylococcus aureus; conditions: S. aureus ATCC 29213, Gram +, MH medium with NaCl, 24 h 37 °C, median of three independent triplicated experiments
Experimental: as §1

[1] = tested on: NHA (normal human astrocytes); format: cell-based; conditions: NHA normal cells; MTT after 48 h, DMEM/F12 with 10% FBS; mean ± SD of at least three independent experiments
Experimental: (§2) Cytotoxic activities of PM III, its isoforms, and tachyplesins against seven human cell lines were evaluated. Four cancer (HL-60 acute promyelocytic leukemia, HeLa cervix adenocarcinoma, SK-BR-3 breast adenocarcinoma, A549 lung carcinoma), one transformed (HEK 293T transformed human embryonic kidney), and two normal human cell lines (HEF human embryonic fibroblasts and NHA normal human astrocytes) were used for these experiments. Cytotoxicity was measured by incubating the cells with serial dilutions of PM I, PM II, PM III, TP I, TP II, or TP III samples followed by MTT assay after 48 h. The half-maximal inhibitory concentrations (IC50) were measured as the peptide concentration at which cell viability was reduced by 50% in comparison to untreated cells (Table 3).
(§3) The following tumor and transformed cell lines were used in this study: HL-60 (acute promyelocytic leukemia), HeLa (human cervix adenocarcinoma cells), SK-BR-3 (human breast adenocarcinoma cells), A549 (human lung carcinoma cells), HEK 293T (transformed human embryonic kidney cells), HEF (human embryonic fibroblasts), and NHA (normal human astrocytes) were used as normal cell lines. Tumor and transformed cell lines were obtained from the American Type Culture Collection (ATCC; www.atcc.org). Primary cells HEF (normal human embryonic fibroblasts derived from human embryonic stem cells) and NHA (normal human astrocytes derived from human fetal brain tissue) were obtained and cultured according to the corresponding protocol. Briefly, cells were cultured in DMEM/F12 (1:1) or RPMI-1640 medium containing 10% fetal bovine serum (Invitrogen, USA) at 37 °C in the atmosphere containing 5% CO2 and 95% air according to standard mammalian tissue culture protocols and using a sterile technique. All cell lines were tested by using the LookOut® Mycoplasma PCR Detection Kit (Sigma-Aldrich, St. Louis, MO, USA) according to the manufacturer’s protocol and found to be free of Mycoplasma infection.
(§4) The colorimetric 3-(4,5-dimethylthiazol-2-yl)-2,5-diphenyltetrazolium bromide (MTT) dye reduction assay was used to determine the cytotoxicity of the polyphemusins and tachyplesins. Cells (3 × 10^3–6 × 10^3 per well) were placed into 96-well plates in Dulbecco’s modified Eagle’s medium (DMEM/F12) supplemented with 10% fetal bovine serum (FBS). After incubation in the atmosphere containing 5% CO2 and 95% air at 37 °C overnight, the media were discarded, and polyphemusins or tachyplesins solutions were added to the cell cultures up to final concentrations of 2.5, 5, 10, 25, and 50 μM in a final volume of 0.1 mL DMEM/F12 with 10% FBS. HL-60 cells (4 × 10^4 in 50 μL) were added to two-time serial dilutions of polyphemusins solutions at a final concentration of 1.25, 2.5, 5, 10, 25, and 50 μM in 50 μL RPMI-1640 with 10% FBS. 48 hours later, 20 μL of MTT (5 mg/mL) was added into each well and the plates were incubated for 3 h at 37 °C. The plates with HL-60 cells were centrifuged for 10 min at 300 g. The media were discarded and 0.1 mL of dimethyl sulfoxide and isopropanol mixture at a ratio of 1:1 (v/v) was added to each well to dissolve the crystallized formazan. The absorbance at 570 nm was measured by a microplate reader (Eppendorf, Hamburg, Germany).

[2] = tested on: HEK 293T (transformed human embryonic kidney cells); format: cell-based; conditions: MTT after 48 h, DMEM/F12 with 10% FBS, mean ± SD of at least three independent experiments
Experimental: as §2, §3, §4

[3] = tested on: HEF (human embryonic fibroblasts); format: cell-based; conditions: HEF normal cells; MTT after 48 h, DMEM/F12 with 10% FBS; mean ± SD of at least three independent experiments
Experimental: as §2, §3, §4

[4] = tested on: SK-BR-3 (human breast adenocarcinoma cells); format: cell-based; conditions: MTT after 48 h, DMEM/F12 with 10% FBS, mean ± SD of at least three independent experiments
Experimental: as §2, §3, §4

[5] = tested on: HeLa (human cervix adenocarcinoma cells); format: cell-based; conditions: MTT after 48 h, DMEM/F12 with 10% FBS, mean ± SD of at least three independent experiments
Experimental: as §2, §3, §4

K. pneumoniae (CI 287) = experiment: Antimicrobial assay, broth microdilution MIC; format: cell-based, Klebsiella pneumoniae; conditions: Gram -, MH medium with NaCl, 24 h 37 °C, median of three independent triplicated experiments
Experimental: as §1

M. luteus B-1314 = experiment: Antimicrobial assay, broth microdilution MIC; format: cell-based, Micrococcus luteus; conditions: M. luteus B-1314, Gram +, MH medium with NaCl, 24 h 37 °C, median of three independent triplicated experiments
Experimental: as §1

[6] = tested on: HL-60 (acute promyelocytic leukemia); format: cell-based, human; conditions: MTT after 48 h, RPMI-1640 with 10% FBS, mean ± SD of at least three independent experiments
Experimental: as §2, §3, §4

E. coli ML-35p = experiment: Antimicrobial assay, broth microdilution MIC; format: cell-based, Escherichia coli; conditions: Gram -, MH medium with NaCl, peptide diluted in 0.1% BSA, 10^6 CFU/mL, 24 h 37 °C, median of three independent triplicated experiments
Experimental: as §1

P. aeruginosa PAO1 = experiment: Antimicrobial assay, broth microdilution MIC; format: cell-based, Pseudomonas aeruginosa; conditions: P. aeruginosa PAO1, Gram -, MH medium with NaCl, 24 h 37 °C, median of three independent triplicated experiments
Experimental: as §1

| Structure (SMILES) | MICs (S. aureus 209P) [µM] | MICs (S. aureus ATCC 29213) [µM] | IC50 [1] [µM] | IC50 [2] [µM] | IC50 [3] | IC50 [4] [µM] | IC50 [5] [µM] | MICs (K. pneumoniae (CI 287)) [µM] | MICs (M. luteus B-1314) [µM] | IC50 [6] [µM] | MICs (E. coli ML-35p) [µM] | MICs (P. aeruginosa PAO1) [µM] |
| --- | --- | --- | --- | --- | --- | --- | --- | --- | --- | --- | --- | --- |
| CC(C)[C@@H]1NC(=O)[C@H](CCCNC(=N)N)NC(=O)[C@H](Cc2ccccc2)NC(=O)[C@@H](NC(=O)[C@H](Cc2c[nH]c3ccccc23)NC(=O)[C@H](CCCNC(=N)N)NC(=O)[C@@H](N)CCCNC(=N)N)CSSC[C@@H](C(=O)N[C@@H](CCCNC(=N)N)C(=O)O)NC(=O)[C@H](CCCCN)NC(=O)[C@H](CCCNC(=N)N)NC(=O)[C@H](Cc2ccc(O)cc2)NC(=O)[C@@H]2CSSC[C@H](NC1=O)C(=O)N[C@@H](Cc1ccc(O)cc1)C(=O)N[C@@H](CCCCN)C(=O)NCC(=O)N[C@@H](Cc1ccccc1)C(=O)N2 [PM II, polyphemusin II] (H-RRWCFRVCYKGFCYRKCR-OH; disulfide 4-17, 8-13 (inferred); N-terminus assumed) | 0.5 | 4 | 18.3 ± 1.4 | 11.3 ± 1.6 | 7 µM and 9.7 µM | 17.3 ± 0.6 | 16.4 ± 1.3 | 0.5 | 1 | 7.2 ± 0.5 | 0.031 | 0.5 |
| CC[C@H](C)[C@@H]1NC(=O)CNC(=O)[C@H](CCCNC(=N)N)NC(=O)[C@H](Cc2ccc(O)cc2)NC(=O)[C@@H]2CSSC[C@H](NC1=O)C(=O)N[C@@H](Cc1ccc(O)cc1)C(=O)N[C@@H](CCCNC(=N)N)C(=O)N[C@@H](CCCNC(=N)N)C(=O)N[C@H](C(=O)N[C@@H](CCCNC(=N)N)C(=O)O)CSSC[C@H](NC(=O)[C@H](Cc1c[nH]c3ccccc13)NC(=O)[C@@H](N)CCCCN)C(=O)N[C@@H](Cc1ccccc1)C(=O)N[C@@H](CCCNC(=N)N)C(=O)N[C@@H](C(C)C)C(=O)N2 [TP I, tachyplesin I] (H-KWCFRVCYRGICYRRCR-OH; disulfide 3-16, 7-12 (inferred); N-terminus assumed) | 0.5 | 8 | 24.7 ± 1.8 | 23.5 ± 1.2 | 13 ± 1.5 µM | 30.1 ± 1.9 | 24.2 ± 1.7 | 0.5 | 1 | 4.8 ± 0.3 | 0.062 | 0.5 |
| CC[C@H](C)[C@@H]1NC(=O)CNC(=O)[C@H](CCCNC(=N)N)NC(=O)[C@H](Cc2ccc(O)cc2)NC(=O)[C@@H]2CSSC[C@H](NC1=O)C(=O)N[C@@H](Cc1ccc(O)cc1)C(=O)N[C@@H](CCCNC(=N)N)C(=O)N[C@@H](CCCCN)C(=O)N[C@H](C(=O)N[C@@H](CCCNC(=N)N)C(=O)O)CSSC[C@H](NC(=O)[C@H](Cc1c[nH]c3ccccc13)NC(=O)[C@@H](N)CCCCN)C(=O)N[C@@H](Cc1ccccc1)C(=O)N[C@@H](CCCNC(=N)N)C(=O)N[C@@H](C(C)C)C(=O)N2 [TP III, tachyplesin III] (H-KWCFRVCYRGICYRKCR-OH; disulfide 3-16, 7-12 (inferred); N-terminus assumed) | 0.5 | 16 | 21.3 ± 1.2 | 19.7 ± 1.9 | 14.1 ± 1.2 µM | 27.5 ± 0.8 | 13.7 ± 1.3 | 0.5 | 2 | 5 ± 0.4 | 0.062 | 0.5 |
| CC(C)[C@@H]1NC(=O)[C@H](CCCNC(=N)N)NC(=O)[C@H](Cc2ccccc2)NC(=O)[C@@H](NC(=O)CNC(=O)[C@H](CCCNC(=N)N)NC(=O)[C@@H](N)CCCNC(=N)N)CSSC[C@@H](C(=O)N[C@@H](CCCNC(=N)N)C(=O)O)NC(=O)[C@H](CCCNC(=N)N)NC(=O)[C@H](CCC(N)=O)NC(=O)[C@H](Cc2ccccc2)NC(=O)[C@@H]2CSSC[C@H](NC1=O)C(=O)N[C@@H](Cc1ccc(O)cc1)C(=O)N[C@@H](CCCNC(=N)N)C(=O)NCC(=O)N[C@@H](Cc1ccccc1)C(=O)N2 [PM III, polyphemusin III] (H-RRGCFRVCYRGFCFQRCR-OH; disulfide 4-17, 8-13 (inferred); N-terminus assumed) | 2 | 16 | 7.5 ± 0.5 | 7.3 ± 0.4 | 7 ± 0.4 µM | 9.9 ± 0.1 | 6 ± 0.2 | 2 | 0.5 | 2.5 ± 0.1 | 0.25 | 0.5 |
| CC[C@H](C)[C@@H]1NC(=O)CNC(=O)[C@H](CCCNC(=N)N)NC(=O)[C@H](Cc2ccc(O)cc2)NC(=O)[C@@H]2CSSC[C@H](NC1=O)C(=O)N[C@@H](Cc1ccc(O)cc1)C(=O)N[C@@H](CCCNC(=N)N)C(=O)N[C@@H](CCCCN)C(=O)N[C@H](C(=O)N[C@@H](CCCNC(=N)N)C(=O)O)CSSC[C@H](NC(=O)[C@H](Cc1c[nH]c3ccccc13)NC(=O)[C@@H](N)CCCNC(=N)N)C(=O)N[C@@H](Cc1ccccc1)C(=O)N[C@@H](CCCNC(=N)N)C(=O)N[C@@H](C(C)C)C(=O)N2 [TP II, tachyplesin II] (H-RWCFRVCYRGICYRKCR-OH; disulfide 3-16, 7-12 (inferred); N-terminus assumed) | 0.5 | 8 | 29.4 ± 1.7 | 24.6 ± 1.7 | 17.7 ± 1.2 µM | 34 ± 1.3 | 24.4 ± 3 | 1 | 1 | 5.6 ± 0.5 | 0.062 | 0.5 |
